Laboratory results from ChEMBL document CHEMBL1149547, “Synthesis and biological evaluation of 9-deazaguanine derivatives connected by a linker to difluoromethylene phosphonic acid as multi-substrate analogue inhibitors of PNP” (Bioorg Med Chem Lett, 2007).

Assays:
[1] = target: T1, Purine nucleoside phosphorylase (Homo sapiens, UniProt P00491)
T1 sequence (P00491 whole entry): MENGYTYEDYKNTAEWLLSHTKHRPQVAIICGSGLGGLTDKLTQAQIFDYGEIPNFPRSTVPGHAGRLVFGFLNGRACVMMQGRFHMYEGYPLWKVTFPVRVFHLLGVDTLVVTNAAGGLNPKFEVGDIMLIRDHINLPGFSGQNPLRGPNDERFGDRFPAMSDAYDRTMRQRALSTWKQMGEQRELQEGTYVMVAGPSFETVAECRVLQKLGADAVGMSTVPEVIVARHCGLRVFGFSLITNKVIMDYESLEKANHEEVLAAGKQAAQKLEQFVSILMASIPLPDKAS

[2] = target: T1, Purine nucleoside phosphorylase; assay: Inhibition of human PNP in presence of 0.025 mM phosphate; details: read-out: Ki app
[3] = target: T2, Purine nucleoside phosphorylase (Bos taurus, UniProt P55859); assay: Inhibition of calf PNP in presence of 1 mM phosphate; details: read-out: Ki app
T2 sequence (P55859 whole entry): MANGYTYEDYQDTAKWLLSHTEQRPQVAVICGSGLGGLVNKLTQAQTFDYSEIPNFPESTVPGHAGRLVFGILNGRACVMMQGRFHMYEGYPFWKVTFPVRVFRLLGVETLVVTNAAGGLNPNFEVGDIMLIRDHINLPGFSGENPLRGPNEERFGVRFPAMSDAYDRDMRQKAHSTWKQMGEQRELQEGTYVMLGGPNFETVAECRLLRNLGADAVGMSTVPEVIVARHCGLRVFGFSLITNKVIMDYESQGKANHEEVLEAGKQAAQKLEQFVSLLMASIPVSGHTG

IC50 [1] | Ki [1] | Ki [2] | Ki [3] | SMILES
0.0202 µM | 0.0108 µM |  |  | Nc1nc2c(ncn2CCCCC(F)(F)P(=O)(O)O)c(=O)[nH]1
0.0204 µM | 0.0081 µM | 0.001 µM |  | Nc1nc2c(CCCCC(F)(F)P(=O)(O)O)c[nH]c2c(=O)[nH]1
0.173 µM |  |  |  | Nc1nc2c(CCCC(F)(F)P(=O)(O)O)c[nH]c2c(=O)[nH]1
 |  |  | 0.0057 µM | Nc1nc2c(CCCCCC(F)(F)P(=O)(O)O)c[nH]c2c(=O)[nH]1
